Laboratory results as given in ChEMBL document CHEMBL3046766, “Design, synthesis, and insecticidal evaluation of new benzoylureas containing isoxazoline and isoxazole group” (2011).
In brackets after ≈: the same amount, converted by molar mass.

Legend:
Format in all cases: functional
Mythimna separata [1] = test: Insecticidal activity against Mythimna separata (Oriental armyworm) fourth-instar larvae infested compound pre-treated corn leaves assessed as larvicidal activity at 100 mg/L measured 4 days post treatment
Mythimna separata [2] = test: Insecticidal activity against Mythimna separata (Oriental armyworm) fourth-instar larvae infested compound pre-treated corn leaves assessed as larvicidal activity at 50 mg/L measured 4 days post treatment
Plutella xylostella [3] = test: Insecticidal activity against Plutella xylostella (diamondback moth) […] larvae infested on compound pre-treated fresh cabbage leaves assessed as larvicidal activity at 200 mg/L measured 3 days post treatment
Culex pipiens pallens [4] = test: Insecticidal activity against Culex pipiens pallens (mosquito) fourth-instar larvae assessed as larvicidal activity at 2 mg/L measured 8 days post treatment; conditions: 192 h
Plutella xylostella [5] = test: Insecticidal activity against Plutella xylostella (diamondback moth) […] larvae infested on compound pre-treated fresh cabbage leaves assessed as larvicidal activity at 5 mg/L measured 3 days post treatment
Plutella xylostella [6] = test: Insecticidal activity against Plutella xylostella (diamondback moth) […] larvae infested on compound pre-treated fresh cabbage leaves assessed as larvicidal activity at 20 mg/L measured 3 days post treatment
Mythimna separata [7] = test: Insecticidal activity against Mythimna separata (Oriental armyworm) fourth-instar larvae infested compound pre-treated corn leaves assessed as larvicidal activity at 10 mg/L measured 4 days post treatment
Culex pipiens pallens [8] = test: Insecticidal activity against Culex pipiens pallens (mosquito) fourth-instar larvae assessed as larvicidal activity at 1 mg/L measured 8 days post treatment; conditions: 192 h
Mythimna separata [9] = test: Insecticidal activity against Mythimna separata (Oriental armyworm) fourth-instar larvae infested compound pre-treated corn leaves assessed as larvicidal activity at 25 mg/L measured 4 days post treatment
Culex pipiens pallens [10] = test: Insecticidal activity against Culex pipiens pallens (mosquito) fourth-instar larvae assessed as larvicidal activity at 0.5 mg/L measured 8 days post treatment; conditions: 192 h
Plutella xylostella [11] = test: Insecticidal activity against Plutella xylostella (diamondback moth) […] larvae infested on compound pre-treated fresh cabbage leaves assessed as larvicidal activity at 2 mg/L measured 3 days post treatment
Plutella xylostella [12] = test: Insecticidal activity against Plutella xylostella (diamondback moth) […] larvae infested on compound pre-treated fresh cabbage leaves assessed as larvicidal activity at 0.2 mg/L measured 3 days post treatment
Mythimna separata [13] = test: Insecticidal activity against Mythimna separata (Oriental armyworm) fourth-instar larvae infested compound pre-treated corn leaves assessed as larvicidal activity at 2.5 mg/L measured 4 days post treatment
Mythimna separata [14] = test: Insecticidal activity against Mythimna separata (Oriental armyworm) fourth-instar larvae infested compound pre-treated corn leaves assessed as larvicidal activity at 5 mg/L measured 4 days post treatment
Plutella xylostella [15] = test: Insecticidal activity against Plutella xylostella (diamondback moth) […] larvae infested on compound pre-treated fresh cabbage leaves assessed as larvicidal activity at 0.02 mg/L measured 3 days post treatment
Mythimna separata [16] = test: Insecticidal activity against Mythimna separata (Oriental armyworm) fourth-instar larvae infested compound pre-treated corn leaves assessed as larvicidal activity at 200 mg/L measured 4 days post treatment
Mythimna separata [17] = test: Insecticidal activity against Mythimna separata (Oriental armyworm) fourth-instar larvae infested compound pre-treated corn leaves assessed as larvicidal activity at 0.25 mg/L measured 4 days post treatment
Plutella xylostella [18] = test: Insecticidal activity against Plutella xylostella (diamondback moth) […] larvae infested on compound pre-treated fresh cabbage leaves assessed as larvicidal activity measured 3 days post treatment
Mythimna separata [19] = test: Insecticidal activity against Mythimna separata (Oriental armyworm) fourth-instar larvae infested compound pre-treated corn leaves assessed as larvicidal activity at 1 mg/L measured 4 days post treatment
Culex pipiens pallens [20] = test: Insecticidal activity against Culex pipiens pallens (mosquito) fourth-instar larvae assessed as larvicidal activity at 0.001 mg/L measured 8 days post treatment; conditions: 192 h
Culex pipiens pallens [21] = test: Insecticidal activity against Culex pipiens pallens (mosquito) fourth-instar larvae assessed as larvicidal activity at 0.005 mg/L measured 8 days post treatment; conditions: 192 h
Culex pipiens pallens [22] = test: Insecticidal activity against Culex pipiens pallens (mosquito) fourth-instar larvae assessed as larvicidal activity at 0.0005 mg/L measured 8 days post treatment; conditions: 192 h
Mythimna separata [23] = test: Insecticidal activity against Mythimna separata (Oriental armyworm) fourth-instar larvae infested compound pre-treated corn leaves assessed as larvicidal activity at 0.5 mg/L measured 4 days post treatment
Culex pipiens pallens [24] = test: Insecticidal activity against Culex pipiens pallens (mosquito) fourth-instar larvae assessed as larvicidal activity at 0.1 mg/L measured 8 days post treatment; conditions: 192 h
Culex pipiens pallens [25] = test: Insecticidal activity against Culex pipiens pallens (mosquito) fourth-instar larvae assessed as larvicidal activity at 0.25 mg/L measured 8 days post treatment; conditions: 192 h
Plutella xylostella [26] = test: Insecticidal activity against Plutella xylostella (diamondback moth) […] larvae infested on compound pre-treated fresh cabbage leaves assessed as larvicidal activity at 100 mg/L measured 3 days post treatment
Culex pipiens pallens [27] = test: Insecticidal activity against Culex pipiens pallens (mosquito) fourth-instar larvae assessed as larvicidal activity at 0.025 mg/L measured 8 days post treatment; conditions: 192 h
Culex pipiens pallens [28] = test: Insecticidal activity against Culex pipiens pallens (mosquito) fourth-instar larvae assessed as larvicidal activity at 0.05 mg/L measured 8 days post treatment; conditions: 192 h

Compound | mortality at 100 µg/mL (Mythimna separata [1]) [%] | mortality at 50 µg/mL (Mythimna separata [2]) [%] | mortality at 200 µg/mL (Plutella xylostella [3]) [%] | mortality at 2 µg/mL (Culex pipiens pallens [4]) [%] | mortality at 20 µg/mL (Plutella xylostella [6]) [%] | other results
O=C(NC(=O)c1c(F)cccc1F)Nc1ccc(C2=NOC3(CCCCC3)C2)cc1 | 100 | 40 | 20 | 70 |  | 
O=C(NC(=O)c1c(F)cccc1F)Nc1ccc(C2=NOC3(CCCC3)C2)cc1 | 100 | 60 | 10 | 80 |  | 
O=C(NC(=O)c1c(F)cccc1F)Nc1ccc(C2=NOC3CCCC23)cc1 (stereo not given) | 100 | 0 | 0 | 50 |  | 
O=C(NC(=O)c1c(F)cccc1F)Nc1ccc(C2=NOC3CC23)cc1 (stereo not given) | 100 | 0 | 10 | 60 |  | 
O=C(NC(=O)c1c(F)cccc1F)Nc1ccc(C2CC(c3ccc(F)cc3)=NO2)cc1 (stereo not given) |  | 100 | 100 | 100 | 70 | mortality at 5 µg/mL (Plutella xylostella [5]): 0%; mortality at 10 µg/mL (Mythimna separata [7]): 60%; mortality at 1 µg/mL (Culex pipiens pallens [8]): 100%; mortality at 25 µg/mL (Mythimna separata [9]): 100%; mortality at 0.5 µg/mL (Culex pipiens pallens [10]): 70%
CC(C)(C)C1=NOC(c2ccc(NC(=O)NC(=O)c3c(F)cccc3F)cc2)C1 (stereo not given) |  | 100 | 100 | 100 | 100 | mortality at 5 µg/mL (Plutella xylostella [5]): 30%; mortality at 10 µg/mL (Mythimna separata [7]): 40%; mortality at 1 µg/mL (Culex pipiens pallens [8]): 80%; mortality at 25 µg/mL (Mythimna separata [9]): 100%
CC(C)(C)c1cc(-c2ccc(NC(=O)NC(=O)c3c(F)cccc3F)cc2)no1 |  |  |  | 40 |  | mortality at 5 µg/mL (Plutella xylostella [5]): 100%; mortality at 2 µg/mL (Plutella xylostella [11]): 100%; mortality at 10 µg/mL (Mythimna separata [7]): 100%; mortality at 0.2 µg/mL (Plutella xylostella [12]): 60%; mortality at 2.5 µg/mL (Mythimna separata [13]): 0%; mortality at 5 µg/mL (Mythimna separata [14]): 100%; mortality at 0.02 µg/mL (Plutella xylostella [15]): 30%
O=C(NC(=O)c1c(F)cccc1F)Nc1ccc(-c2cc(COCC(F)(F)F)on2)cc1 | 100 | 20 | 30 | 40 | 0 | mortality at 200 µg/mL (Mythimna separata [16]): 100%
CCCCOCc1cc(-c2ccc(NC(=O)NC(=O)c3c(F)cccc3F)cc2)no1 | 100 | 80 | 0 | 60 |  | mortality at 200 µg/mL (Mythimna separata [16]): 100%
Cc1cc(-c2ccc(NC(=O)NC(=O)c3c(F)cccc3F)cc2)no1 | 100 | 20 | 10 | 20 |  | mortality at 200 µg/mL (Mythimna separata [16]): 100%
CCCCCCCCc1cc(-c2ccc(NC(=O)NC(=O)c3c(F)cccc3F)cc2)no1 | 100 | 20 | 10 | 40 |  | mortality at 200 µg/mL (Mythimna separata [16]): 100%
CC(C)(C)O/N=C/c1ccc(NC(=O)NC(=O)c2c(F)cccc2F)cc1 |  |  |  |  |  | mortality at 0.25 µg/mL (Mythimna separata [17]): 0%; LC50 (Plutella xylostella [18]): 30.8 µg/mL (≈ 82 µM); mortality at 1 µg/mL (Mythimna separata [19]): 100%; mortality at 0.001 µg/mL (Culex pipiens pallens [20]): 70%; mortality at 0.005 µg/mL (Culex pipiens pallens [21]): 100%; mortality at 0.0005 µg/mL (Culex pipiens pallens [22]): 20%; mortality at 0.5 µg/mL (Mythimna separata [23]): 85%
CC(C)(C)C1CC(c2ccc(NC(=O)NC(=O)c3c(F)cccc3F)cc2)=NO1 (stereo not given) |  | 100 |  |  |  | mortality at 5 µg/mL (Plutella xylostella [5]): 100%; mortality at 2 µg/mL (Plutella xylostella [11]): 80%; mortality at 10 µg/mL (Mythimna separata [7]): 100%; mortality at 0.2 µg/mL (Plutella xylostella [12]): 70%; mortality at 25 µg/mL (Mythimna separata [9]): 100%; mortality at 5 µg/mL (Mythimna separata [14]): 40%; mortality at 0.02 µg/mL (Plutella xylostella [15]): 10%; mortality at 0.1 µg/mL (Culex pipiens pallens [24]): 50%; mortality at 0.25 µg/mL (Culex pipiens pallens [25]): 100%
O=C(NC(=O)c1c(F)cccc1F)Nc1ccc(C2=NOC(c3ccc(F)cc3)C2)cc1 (stereo not given) |  |  |  | 40 | 100 | mortality at 5 µg/mL (Plutella xylostella [5]): 80%; mortality at 2 µg/mL (Plutella xylostella [11]): 30%; mortality at 200 µg/mL (Mythimna separata [16]): 10%
CCCCC1CC(c2ccc(NC(=O)NC(=O)c3c(F)cccc3F)cc2)=NO1 (stereo not given) | 100 | 0 | 80 | 30 | 20 | mortality at 200 µg/mL (Mythimna separata [16]): 100%; mortality at 100 µg/mL (Plutella xylostella [26]): 70%
O=C(NC(=O)c1c(F)cccc1F)Nc1ccc(C2=NOC(CBr)C2)cc1 (stereo not given) | 100 | 20 | 40 | 60 | 0 | 
CCCCCCCC1CC(c2ccc(NC(=O)NC(=O)c3c(F)cccc3F)cc2)=NO1 (stereo not given) | 100 | 60 | 0 | 50 |  | 
N#CC1CC(c2ccc(NC(=O)NC(=O)c3c(F)cccc3F)cc2)=NO1 (stereo not given) | 100 | 0 | 0 |  |  | mortality at 0.1 µg/mL (Culex pipiens pallens [24]): 70%; mortality at 0.25 µg/mL (Culex pipiens pallens [25]): 100%
COC(=O)C1CC(c2ccc(NC(=O)NC(=O)c3c(F)cccc3F)cc2)=NO1 (stereo not given) | 100 | 0 | 10 | 60 |  | 
CCCCOCC1CC(c2ccc(NC(=O)NC(=O)c3c(F)cccc3F)cc2)=NO1 (stereo not given) | 100 | 40 | 10 | 100 |  | mortality at 1 µg/mL (Culex pipiens pallens [8]): 80%
O=C(NC(=O)c1c(F)cccc1F)Nc1ccc(C2=NOC(COCC(F)(F)F)C2)cc1 (stereo not given) | 100 | 60 | 0 | 40 |  | 
O=C(NC(=O)c1c(F)cccc1F)Nc1ccc(C2=NOC(c3ccccc3)C2)cc1 (stereo not given) | 100 | 0 | 50 |  | 30 | mortality at 0.1 µg/mL (Culex pipiens pallens [24]): 90%; mortality at 0.25 µg/mL (Culex pipiens pallens [25]): 100%
CC1(c2ccccc2)CC(c2ccc(NC(=O)NC(=O)c3c(F)cccc3F)cc2)=NO1 (stereo not given) | 100 | 60 | 100 |  | 30 | mortality at 200 µg/mL (Mythimna separata [16]): 100%; mortality at 100 µg/mL (Plutella xylostella [26]): 80%; mortality at 0.1 µg/mL (Culex pipiens pallens [24]): 80%; mortality at 0.25 µg/mL (Culex pipiens pallens [25]): 100%; mortality at 0.5 µg/mL (Culex pipiens pallens [10]): 100%
O=C(NC(=O)c1c(F)cccc1F)Nc1ccc(CO/N=C(/c2ccc(Cl)cc2)C2CC2)cc1 [FLUCYCLOXURON] |  |  |  |  |  | mortality at 0.025 µg/mL (Culex pipiens pallens [27]): 15%; mortality at 10 µg/mL (Mythimna separata [7]): 95%; mortality at 2.5 µg/mL (Mythimna separata [13]): 50%; mortality at 1 µg/mL (Mythimna separata [19]): 10%; mortality at 5 µg/mL (Mythimna separata [14]): 90%; mortality at 0.05 µg/mL (Culex pipiens pallens [28]): 100%; mortality at 0.1 µg/mL (Culex pipiens pallens [24]): 100%
